The structures appear in SMILES notation. Converted amounts (≈) assume the structure as drawn.

The subject of data set [1] is M. tuberculosis Kurono. The data set is described as follows: Antibacterial test, agar-plate dilution method (minimum inhibitory concentration), Test Example 2. Conditions: 7H11 agar medium, 37° C. for 14 days; for MIC: Mycobacterium tuberculosis, 336 h. The data set is classed as cell-based.
The test system of data set [2] is Mycobacterium tuberculosis (H37Rv strain). Conditions: in vitro, literature report; cited from earlier work.
For data set [3], the system named is M. avium. To be noted: used at 250 μg/ml or less; cited from earlier work.
Data set [4] relates to M. intracellulare. Conditions: used at 250 μg/ml or less; cited from earlier work.
Data set [5] deals with M. fortuitum. Conditions: used at 250 μg/ml or less; cited from earlier work.

By MIC is commonly meant the least concentration at which growth counts as inhibited. Compound `C[C@]1(COc2ccc(N3CCN(CCOc4ccc(OC(F)(F)F)cc4)CC3)cc2)Cn2cc([N+](=O)[O-])nc2O1` [Example 9, (R)-2-methyl-6-nitro-2-(4-(4-(2-(4-trifluoromethoxyphenoxy)ethyl)piperazine-1-yl)phenoxymethyl)-2,3-dihydroimidazo[2,1-b]oxazole] had a minimum inhibitory concentration (MIC) in data set [1] of 0.012 µg/mL (≈ 0.0213 µM).

Broadly, the melting point is the temperature of the solid-liquid transition. The compound `C[C@]1(COc2ccc3nc(N4CCN(Cc5ccc(OC(F)(F)F)cc5)CC4)sc3c2)Cn2cc([N+](=O)[O-])nc2O1` [Example 1, (R)-2-methyl-6-nitro-2-(2-(4-(4-trifluoromethoxybenzyl)-piperazine-1-yl)benzothiazole-6-yloxymethyl)-2,3-dihydroimidazo[2,1-b]oxazole] gave a melting point of 205.6 to 207.4 °C. For the same compound, the minimum inhibitory concentration (MIC) in data set [1] was found to be 0.2 µg/mL (≈ 0.339 µM).

In the case of `C[C@]1(COc2ccc(N3CCC(CC=Cc4ccc(C(F)(F)F)cc4)CC3)cc2)Cn2cc([N+](=O)[O-])nc2O1` [Example 8, (R)-2-methyl-6-nitro-2-(4-(4-(3-(4-trifluoromethyphenyl)-2-propenyl)piperidine-1-yl)phenoxymethyl)-2,3-dihydroimidazo[2,1-b]oxazole], the “Minimum Inhibitory Concentration” value in data set [1] came to 0.006 µg/mL.

`CCC1Cn2cc([N+](=O)[O-])nc2O1` (centres unmarked) [CGI-17341]: in data set [2], the “bactericidal action to Mycobacterium tuberculosis (H37Rv strain)” value is listed as “has a bactericidal action”. In addition, the “activity to M. avium” value in data set [3] is “does not have the activity”. Besides, the “activity to M. intracellulare” value in data set [4] is “does not have the activity”. In data set [5], the “activity to M. fortuitum” value is listed as “does not have the activity”.

On to `C[C@]1(COc2ccc(N3CCC(Cc4cccc(OC(F)(F)F)c4)CC3)cc2)Cn2cc([N+](=O)[O-])nc2O1`, for which the melting point is 187.4 to 189.8 °C.

On to `C[C@]1(COc2ccc3nc(N4CCC(Cc5ccc(OC(F)(F)F)cc5)CC4)ccc3c2)Cn2cc([N+](=O)[O-])nc2O1`, for which the melting point was 184.9 to 185.9 °C.

For the compound `CC(C)(C)OC(=O)N1CCCN(c2ccc(-c3ccc(OC[C@H]4Cn5cc([N+](=O)[O-])nc5O4)cc3)cc2)CC1`, the melting point lay in the range of 235.5 to 237.5 °C.

In turn, `CN(Cc1cc(C(F)(F)F)cc(C(F)(F)F)c1)C1CCN(c2ccc(OC[C@@]3(C)Cn4cc([N+](=O)[O-])nc4O3)cc2)CC1` had a melting point of 193.8 to 195.3 °C.

As to `O=[N+]([O-])c1cn2c(n1)O[C@@H](COc1ccc(N3CCC(CCc4ccc(OC(F)(F)F)cc4)CC3)cc1)C2`, the melting point was 208.9 to 211.7 °C.

In turn, `CC1(COc2ccc(N3CCC(COCc4ccc(OC(F)(F)F)cc4)CC3)cc2)Cn2cc([N+](=O)[O-])nc2O1` (centres unmarked) displayed a melting point of 153.1 to 153.7 °C.

Turning to `C[C@]1(COc2ccc(C(=O)NCC(=O)N3CCC(Oc4ccc(OC(F)(F)F)cc4)CC3)cc2)Cn2cc([N+](=O)[O-])nc2O1`, the melting point fell in the range of 186.9 to 189.5 °C.

For the compound `CN(C(=O)OC(C)(C)C)C1CCN(Cc2ccc(OCC3(C)Cn4cc([N+](=O)[O-])nc4O3)cc2)CC1` (centres unmarked), the melting point is 138.5 to 141.9 °C.

The compound `C[C@]1(COc2ccc(N3CCC(CCOCc4ccc(C(F)(F)F)cc4)CC3)cc2)Cn2cc([N+](=O)[O-])nc2O1` had a melting point of 198 to 199.2 °C.

For `C[C@]1(COc2ccc(-c3ccc(N4CCN(Cc5ccc(C(F)(F)F)cc5)CC4)cc3)cc2)Cn2cc([N+](=O)[O-])nc2O1`, the melting point is 247.7 to 248.4 °C (dec.).

In the case of `C[C@]1(COc2ccc(N3CCC(COc4ccc(-c5ccccc5)cc4)CC3)cc2)Cn2cc([N+](=O)[O-])nc2O1`, the melting point is 245 °C (dec.).

Compound `C[C@]1(COc2ccc(N3CCN(Cc4ccc(N5CCC(Oc6ccc(OC(F)(F)F)cc6)CC5)cc4)CC3)cc2)Cn2cc([N+](=O)[O-])nc2O1` had a melting point of 198.2 to 201.4 °C.
